Experimental data as given in the PolyMetriX glass transition set.
± gives the standard deviation of the reports.

Columns and labels:
[1] = not given; remark: listed apart in the source

Structure (SMILES) | glass transition temperature | glass transition temperature [1]
*CC(*)C(=O)OCC#N (repeat unit) [Poly(cyanomethyl acrylate)] | 23 °C | 
*CC(*)C(=O)NCCCCCCCC (repeat unit) [Poly(N-octyl acrylamide)] | -53 °C | 
*c1nc(C(F)(F)C(F)(F)OC(F)(F)F)nc(C(F)(F)C(F)(F)C(F)(F)C(*)(F)F)n1 (repeat unit) [Perfluoropolymer 2 ] |  | -18.6 ± 0.7 °C
*CC=C(C*)CCC (repeat unit) [Poly(2-n-propyl-1 ,4-butadiene) ] |  | -77.6 ± 0.7 °C
